Results published in the NIST ThermoML archive (doi:10.1021/acs.jced.5b00447).
± gives the expanded uncertainty stated by the source.

Legend:
[1] = xn = mol fraction of the nth substance listed; conditions: for surface tension liquid-gas: wilhelmi plate; for viscosity / mass density / speed of sound: 100 kPa, Liquid; for viscosity: Capillary tube (Ostwald / Ubbelohde) method; for mass density: Vibrating tube method; for speed of sound: Frequency=3 MHz, Sing-around technique in a fixed-path interferometer
[2] = for surface tension liquid-gas: wilhelmi plate; for viscosity / speed of sound / mass density: 100 kPa, Liquid; for viscosity: Capillary tube (Ostwald / Ubbelohde) method; for speed of sound: Frequency=3 MHz, Sing-around technique in a fixed-path interferometer; for mass density: Vibrating tube method

SMILES | surface tension liquid-gas ([2]; 298.15 K) | viscosity ([2]; 298.15 K) | speed of sound ([2]; 298.15 K) | mass density ([2]; 298.15 K) | surface tension liquid-gas ([2]; 293.15 K) | viscosity ([2]; 293.15 K) | mass density ([2]; 293.15 K) | surface tension liquid-gas ([2]; 303.15 K) | viscosity ([2]; 303.15 K) | mass density ([2]; 303.15 K) | surface tension liquid-gas ([2]; 313.15 K) | viscosity ([2]; 313.15 K) | speed of sound ([2]; 313.15 K) | mass density ([2]; 313.15 K) | surface tension liquid-gas ([2]; 323.15 K) | viscosity ([2]; 323.15 K) | mass density ([2]; 323.15 K) | other results
O [water] + CN(C)CCN |  |  |  |  |  |  |  |  |  |  |  |  |  |  |  |  |  | surface tension liquid-gas ([1]; 293.15 K, x2 = 0): 72.6 ± 0.6 mN/m; viscosity ([1]; 293.15 K, x2 = 0): 0.993 ± 0.006 mPa·s; mass density ([1]; 293.15 K, x2 = 0): 998 ± 2 kg/m3; surface tension liquid-gas ([1]; 303.15 K, x2 = 0): 71.1 ± 0.6 mN/m; viscosity ([1]; 303.15 K, x2 = 0): 0.797 ± 0.005 mPa·s; mass density ([1]; 303.15 K, x2 = 0): 996 ± 2 kg/m3; surface tension liquid-gas ([1]; 313.15 K, x2 = 0): 69.2 ± 0.6 mN/m; viscosity ([1]; 313.15 K, x2 = 0): 0.654 ± 0.005 mPa·s; speed of sound ([1]; 313.15 K, x2 = 0): 1529.1 ± 1.6 m/s; mass density ([1]; 313.15 K, x2 = 0): 992 ± 2 kg/m3; surface tension liquid-gas ([1]; 323.15 K, x2 = 0): 67.7 ± 0.6 mN/m; viscosity ([1]; 323.15 K, x2 = 0): 0.547 ± 0.004 mPa·s; mass density ([1]; 323.15 K, x2 = 0): 988 ± 2 kg/m3
NCCO [2-aminoethan-1-ol] | 49.1 ± 0.4 mN/m | 18.74 ± 4.7 mPa·s | 1719.2 ± 1.9 m/s | 1012 ± 2 kg/m3 |  |  |  |  |  |  |  |  |  |  |  |  |  | 
CN(C)CCN [2-dimethylamino-1-ethylamine] | 26.1 ± 0.4 mN/m | 0.895 ± 0.068 mPa·s | 1300.8 ± 2.5 m/s | 814.3 ± 2.1 kg/m3 | 26.4 ± 0.4 mN/m | 0.988 ± 0.075 mPa·s | 819 ± 2 kg/m3 | 25.8 ± 0.4 mN/m | 0.819 ± 0.054 mPa·s | 810 ± 2 kg/m3 | 25.2 ± 0.4 mN/m | 0.693 ± 0.045 mPa·s | 1239 ± 2.5 m/s | 801 ± 2 kg/m3 | 24.5 ± 0.4 mN/m | 0.596 ± 0.039 mPa·s | 791 ± 2 kg/m3 | speed of sound ([2]; 293.15 K): 1319.6 ± 2.5 m/s; speed of sound ([2]; 303.15 K): 1279.3 ± 2.5 m/s; speed of sound ([2]; 323.15 K): 1199.3 ± 2.5 m/s
CN(C)CCO [2-(N,N-dimethylamino)ethanol] | 31.3 ± 0.4 mN/m | 3.69 ± 0.42 mPa·s | 1335.9 ± 2.5 m/s | 882.8 ± 2.1 kg/m3 |  |  |  |  |  |  |  |  |  |  |  |  |  | 
O [water] | 72.1 ± 0.3 mN/m | 0.891 ± 0.079 mPa·s |  |  | 72.6 ± 0.3 mN/m | 0.993 ± 0.082 mPa·s | 998 ± 2 kg/m3 | 71.1 ± 0.3 mN/m | 0.797 ± 0.063 mPa·s | 996 ± 2 kg/m3 | 69.2 ± 0.3 mN/m | 0.654 ± 0.05 mPa·s | 1529.1 ± 1.6 m/s | 992 ± 2 kg/m3 | 67.7 ± 0.3 mN/m | 0.547 ± 0.043 mPa·s | 988 ± 2 kg/m3 | 
CN(C)CCN [2-dimethylamino-1-ethylamine] + NCCO |  |  |  |  |  |  |  |  |  |  |  |  |  |  |  |  |  | surface tension liquid-gas ([1]; 293.15 K, x1 = 0.5): 32.4 ± 0.4 mN/m; viscosity ([1]; 293.15 K, x1 = 0.5): 10.74 ± 0.095 mPa·s; speed of sound ([1]; 293.15 K, x1 = 0.5): 1498.1 ± 2.2 m/s; mass density ([1]; 293.15 K, x1 = 0.5): 941 ± 2 kg/m3; surface tension liquid-gas ([1]; 303.15 K, x1 = 0.5): 31.6 ± 0.4 mN/m; viscosity ([1]; 303.15 K, x1 = 0.5): 7.169 ± 0.065 mPa·s; speed of sound ([1]; 303.15 K, x1 = 0.5): 1463.7 ± 2.2 m/s; mass density ([1]; 303.15 K, x1 = 0.5): 932 ± 2 kg/m3; surface tension liquid-gas ([1]; 313.15 K, x1 = 0.5): 30.9 ± 0.4 mN/m; viscosity ([1]; 313.15 K, x1 = 0.5): 5.066 ± 0.047 mPa·s; speed of sound ([1]; 313.15 K, x1 = 0.5): 1428.9 ± 2.2 m/s; mass density ([1]; 313.15 K, x1 = 0.5): 924 ± 2 kg/m3; surface tension liquid-gas ([1]; 323.15 K, x1 = 0.5): 30.3 ± 0.4 mN/m; viscosity ([1]; 323.15 K, x1 = 0.5): 3.517 ± 0.033 mPa·s; speed of sound ([1]; 323.15 K, x1 = 0.5): 1394.1 ± 2.2 m/s; mass density ([1]; 323.15 K, x1 = 0.5): 916 ± 2 kg/m3
